“And” between values parts separate entries of the source, which are not always exact repeats. Equal values may be shown once. Read-outs that look alike come from different tables or passages of the source.
Molecular target: T1, FIH^WT (Homo sapiens, UniProt Q9NWT6)
T1 construct: pET28a vectors encoding for full-length FIH with an N-terminal His6 tag; His6 (N); host or cells: Escherichia coli BL21
Test: Affinity-based fluorescence polarization (FP) assay with FIH WT, without and with 365 nm irradiation
Conditions: read-out: Binding affinity to FIH^WT: Ki
Source text: We also performed a reported affinity-based fluorescence polarization (FP) assay (Figure S6) , under light activation to measure the binding affinity of NBA-ZG-2291 to FIH (Figure A). […] These observations are consistent with the intact protein MS analyzes. We also evaluated the binding affinities of two negative controls to FIH, which were designed not to covalently react with Lys106.
4 (A) Light-induced click conjugation between NBA-ZG-2291 and FIH protein. (B) Light-induced binding affinity of NBA-ZG-2291 to FIH^ WT . (C) Light-induced binding affinity of NBA-ZG-2291 to FIH^ K106A . […] TEXT PRINTED IN THE PICTURE: (B) NBA-ZG-2291: Binding affinity to FIH^WT: Ki (nM): 414 ± 14 (Irradtion time (min): 0); Binding affinity to FIH^WT: Ki (nM): 74.1 ± 1.6 (Irradtion time (min): 15); Binding affinity to FIH^WT: Ki (nM): 46.7 ± 1.4 (Irradtion time (min): 30); Binding affinity to FIH^WT: Ki (nM): 33.2 ± 0.6 (Irradtion time (min): 60); Binding affinity to FIH^WT: Ki (nM): 30.2 ± 2.0 (Irradtion time (min): 90); Binding affinity to FIH^WT: Ki (nM): 32.1 ± 0.7 (Irradtion time (min): 120) | (B) Neg-1: Binding affinity to FIH^WT: Ki (nM): 423 ± 7 (Irradtion time (min): 0); Binding affinity to FIH^WT: Ki (nM): 408 ± 30 (Irradtion time (min): 15); Binding affinity to FIH^WT: Ki (nM): 459 ± 32 (Irradtion time (min): 30); Binding affinity to FIH^WT: Ki (nM): 427 ± 17 (Irradtion time (min): 60); Binding affinity to FIH^WT: Ki (nM): 396 ± 29 (Irradtion time (min): 90); Binding affinity to FIH^WT: Ki (nM): 428 ± 15 (Irradtion time (min): 120) | (B) Neg-2: Binding affinity to FIH^WT: Ki (nM): 742 ± 65 (Irradtion time (min): 0); Binding affinity to FIH^WT: Ki (nM): 799 ± 69 (Irradtion time (min): 15); Binding affinity to FIH^WT: Ki (nM): 758 ± 13 (Irradtion time (min): 30); Binding affinity to FIH^WT: Ki (nM): 744 ± 30 (Irradtion time (min): 60); Binding affinity to FIH^WT: Ki (nM): 788 ± 36 (Irradtion time (min): 90); Binding affinity to FIH^WT: Ki (nM): 786 ± 35 (Irradtion time (min): 120) | (C) NBA-ZG-2291: Binding affinity to FIH^K106A: Ki (nM): 442 ± 12 (Irradtion time (min): 0); Binding affinity to FIH^K106A: Ki (nM): 427 ± 22 (Irradtion time (min): 15); Binding affinity to FIH^K106A: Ki (nM): 426 ± 7 (Irradtion time (min): 30); Binding affinity to FIH^K106A: Ki (nM): 420 ± 11 (Irradtion time (min): 60); Binding affinity to FIH^K106A: Ki (nM): 418 ± 5 (Irradtion time (min): 90); Binding affinity to FIH^K106A: Ki (nM): 424 ± 12 (Irradtion time (min): 120) | (C) Neg-1: Binding affinity to FIH^K106A: Ki (nM): 271 ± 14 (Irradtion time (min): 0); Binding affinity to FIH^K106A: Ki (nM): 275 ± 15 (Irradtion time (min): 15); Binding affinity to FIH^K106A: Ki (nM): 268 ± 25 (Irradtion time (min): 30); Binding affinity to FIH^K106A: Ki (nM): 266 ± 22 (Irradtion time (min): 60); Binding affinity to FIH^K106A: Ki (nM): 264 ± 41 (Irradtion time (min): 90); Binding affinity to FIH^K106A: Ki (nM): 270 ± 3 (Irradtion time (min): 120) | (C) Neg-2: Binding affinity to FIH^K106A: Ki (nM): 567 ± 37 (Irradtion time (min): 0); Binding affinity to FIH^K106A: Ki (nM): 548 ± 61 (Irradtion time (min): 15); Binding affinity to FIH^K106A: Ki (nM): 521 ± 50 (Irradtion time (min): 30); Binding affinity to FIH^K106A: Ki (nM): 627 ± 17 (Irradtion time (min): 60); Binding affinity to FIH^K106A: Ki (nM): 565 ± 10 (Irradtion time (min): 90); Binding affinity to FIH^K106A: Ki (nM): 552 ± 38 (Irradtion time (min): 120) […]
3. Experimental procedures
3.1 Fluorescence polarization (FP) assays1 with FIHWT and FIHK106A pET28a vectors encoding for full-length FIH with an N-terminal His6 tag or for FIH (K106A) with an N-terminal His6 tag were purchased from Nanjing Zoonbio Biotechnology. Both the FIHWT and FIHK106A protein were expressed from the respective plasmid in Escherichia coli BL21 at 20 °C for 16 h. E. coli cells were lysed and the lysate were clarified by centrifugation. His6- […]

T1 sequence (Q9NWT6 whole entry): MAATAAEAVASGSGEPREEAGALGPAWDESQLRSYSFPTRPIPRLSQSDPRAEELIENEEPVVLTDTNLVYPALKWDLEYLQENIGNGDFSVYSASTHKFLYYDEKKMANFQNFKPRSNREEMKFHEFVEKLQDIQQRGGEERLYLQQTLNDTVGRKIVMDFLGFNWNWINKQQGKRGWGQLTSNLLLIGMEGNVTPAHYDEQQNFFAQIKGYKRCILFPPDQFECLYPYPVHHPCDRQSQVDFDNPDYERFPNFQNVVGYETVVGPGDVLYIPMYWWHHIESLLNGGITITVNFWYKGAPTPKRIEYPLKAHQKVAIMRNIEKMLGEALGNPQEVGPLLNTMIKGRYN

Ki (irradiation time 0 min): 0.414 ± 0.014 µM | Ki (irradiation time 15 min): 0.0741 ± 0.0016 µM | Ki (irradiation time 30 min): ~0.04 µM and 0.0467 µM | Ki (irradiation time 60 min): 0.0332 ± 0.0006 µM | Ki (irradiation time 90 min): 0.0302 ± 0.002 µM | Ki (irradiation time 120 min): 0.0321 ± 0.0007 µM
SMILES: O=C(O)CNC(=O)c1ncc(-c2cc(-c3ccc(CO)c([N+](=O)[O-])c3)no2)cc1O [NBA-ZG-2291]

From PMC12123601, “Light-Induced, Lysine-Targeting Irreversible Covalent Inhibition of the Human Oxygen Sensing Hydroxylase Factor Inhibiting HIF (FIH)” (Journal of the American Chemical Society, 2025)
